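Cells were grown in 96-well plates and exposed to each compound for 48 hours at five concentrations; endpoints were interpolated linearly between bracketing concentrations, or set to the highest concentration if not reached. TGI: total growth inhibition.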
Columns and labels:
Test in all cases: inhibition of tumour cell growth, NCI panel, 48 h
NCI-H226 lung = test system: NCI-H226 lung
SK-MEL-5 melanoma = test system: SK-MEL-5 melanoma
SK-MEL-2 melanoma = test system: SK-MEL-2 melanoma
OVCAR-5 ovarian = test system: OVCAR-5 ovarian
DMS 273 small cell lung = test system: DMS 273 small cell lung
DLD-1 colon = test system: DLD-1 colon
SK-MEL-28 melanoma = test system: SK-MEL-28 melanoma
NCI-H522 lung = test system: NCI-H522 lung
SF-539 CNS = test system: SF-539 CNS
M19-MEL melanoma = test system: M19-MEL melanoma
IGROV1 ovarian = test system: IGROV1 ovarian
LXFL 529 NSCLC = test system: LXFL 529 NSCLC
TK-10 renal = test system: TK-10 renal
DMS 114 small cell lung = test system: DMS 114 small cell lung
MDA-N = test system: MDA-N
HS 578T breast = test system: HS 578T breast

N#Cc1cccc(-n2[nH]c(=O)ccc2=O)c1
TGI (NCI-H226 lung): > 100 µM
TGI (SK-MEL-5 melanoma): > 100 µM
TGI (SK-MEL-2 melanoma): > 100 µM
TGI (OVCAR-5 ovarian): > 100 µM
TGI (DMS 273 small cell lung): > 100 µM
TGI (DLD-1 colon): > 100 µM
TGI (SK-MEL-28 melanoma): > 100 µM
TGI (NCI-H522 lung): > 100 µM
TGI (SF-539 CNS): > 100 µM
TGI (M19-MEL melanoma): > 100 µM
TGI (IGROV1 ovarian): > 100 µM
TGI (LXFL 529 NSCLC): > 100 µM
TGI (TK-10 renal): > 100 µM
TGI (DMS 114 small cell lung): > 100 µM

COc1cc2c(cc1O)[C@H](C)C(c1ccc(OC)c(OC)c1)O2 (some centres not stated)
TGI (NCI-H226 lung): 64.6 µM
TGI (SK-MEL-5 melanoma): 20.8 µM
TGI (SK-MEL-2 melanoma): 12.8 µM
TGI (OVCAR-5 ovarian): > 100 µM
TGI (DMS 273 small cell lung): 15.4 µM
TGI (DLD-1 colon): 21.3 µM
TGI (SK-MEL-28 melanoma): 23 µM
TGI (NCI-H522 lung): 30.8 µM
TGI (SF-539 CNS): 38.6 µM
TGI (M19-MEL melanoma): 12.2 µM
TGI (IGROV1 ovarian): 4.36 µM
TGI (LXFL 529 NSCLC): 21.5 µM
TGI (TK-10 renal): 30.1 µM
TGI (DMS 114 small cell lung): 13.8 µM

O=C1C(Br)=C(Br)C(=O)c2ccc(=O)ccc21
TGI (NCI-H226 lung): > 100 µM
TGI (SK-MEL-5 melanoma): 44.4 µM
TGI (SK-MEL-2 melanoma): > 75.1 µM
TGI (OVCAR-5 ovarian): > 86.7 µM
TGI (DMS 273 small cell lung): > 100 µM
TGI (DLD-1 colon): 46.6 µM
TGI (SK-MEL-28 melanoma): 52 µM
TGI (MDA-N): 44.8 µM
TGI (HS 578T breast): > 84.5 µM
TGI (NCI-H522 lung): 7.25 µM
TGI (SF-539 CNS): 45 µM
TGI (M19-MEL melanoma): 32.5 µM
TGI (IGROV1 ovarian): > 66.1 µM
TGI (LXFL 529 NSCLC): 31.7 µM
TGI (TK-10 renal): 37.2 µM
TGI (DMS 114 small cell lung): 39.2 µM

COc1cc(-c2cccs2)sc1-c1cccs1
TGI (NCI-H226 lung): > 100 µM
TGI (SK-MEL-5 melanoma): > 100 µM
TGI (SK-MEL-2 melanoma): > 100 µM
TGI (OVCAR-5 ovarian): > 100 µM
TGI (DMS 273 small cell lung): > 100 µM
TGI (DLD-1 colon): > 100 µM
TGI (SK-MEL-28 melanoma): > 100 µM
TGI (NCI-H522 lung): > 100 µM
TGI (SF-539 CNS): > 100 µM
TGI (M19-MEL melanoma): > 100 µM
TGI (IGROV1 ovarian): > 100 µM
TGI (LXFL 529 NSCLC): > 100 µM
TGI (TK-10 renal): > 100 µM
TGI (DMS 114 small cell lung): 94.3 µM

CNC(=O)NCCCC(NC(C)=O)C(=O)NCc1ccccc1 (configuration not stated)
TGI (NCI-H226 lung): > 100 µM
TGI (SK-MEL-5 melanoma): > 100 µM
TGI (SK-MEL-2 melanoma): > 100 µM
TGI (OVCAR-5 ovarian): > 100 µM
TGI (DMS 273 small cell lung): > 100 µM
TGI (DLD-1 colon): > 100 µM
TGI (SK-MEL-28 melanoma): > 100 µM
TGI (NCI-H522 lung): > 100 µM
TGI (SF-539 CNS): > 100 µM
TGI (M19-MEL melanoma): > 100 µM
TGI (IGROV1 ovarian): > 100 µM
TGI (LXFL 529 NSCLC): > 100 µM
TGI (TK-10 renal): > 100 µM
TGI (DMS 114 small cell lung): > 100 µM
